Laboratory results: patent publication US9499462B2, “Isolated compounds from turmeric oil and methods of use” (Cognition Therapeutics, Inc., priority 2011, dated 2016)
“Also recorded” adds a separate entry of the source.

Key:
[1] = system: Abeta oligomer-induced acceleration of exocytosis (membrane trafficking) in primary neurons; experiment: Exocytosis / MTT membrane trafficking assay in mature primary neurons treated with Abeta oligomers; type: cell-based, Sprague-Dawley rat; details: for block of Abeta oligomer effects on membrane trafficking (in words): primary neurons in vitro; for efficacy relative to the parent CT0093 (in words) / potency relative to the parent CT0093 (in words): 21DIV primary neurons
Protocol: Primary neurons from E18 Sprague-Dawley rat embryos are plated at optimized concentrations in 384 well plates in NB media (Invitrogen). Neurons are maintained in cultures for 3 weeks, with twice weekly feeding of NB media with N2 supplement (Invitrogen). A test compound is added to cells, followed by addition of Vehicle or Abeta oligomer preparations (1.5 μM), and incubated for 1 to 24 hr. at 37° C. in 5% CO2. MTT reagent (3-(4,5-dimethylthizaol-2-yl)-2,5diphenyl tetrazolium bromide) (Roche Molecular Biochemicals) is reconstituted in phosphate buffered saline to 5 mg/mL. 10 μL of MTT labeling reagent is added to each well and incubated at 37° C. for 1 h, then imaged.
Each assay plate is formatted so that compounds are tested with and without Abeta on each plate.
Similar procedures for exocytosis assays/MTT assays can be found in the literature. See e.g., Liu Y, et. al., Detecting bioactive amyloid beta peptide species in Alzheimer's disease. J. Neurochem. 2004 November; 91(3):648-56; Liu Y, and Schubert D. “Cytotoxic amyloid peptides inhibit cellular 3-(4,5-dimethylthiazol-2-yl)-2,5-diphenyltetrazolium bromide (MTT) reduction by enhancing MTT formazan exocytosis.” J. Neurochem. 1997 December; 69(6):2285-93; and Liu Y, and Schubert D. “Treating Alzheimer's disease by inactivating bioactive amyloid beta peptide” Curr. Alzheimer Res. 2006 April; 3(2):129-35. Abeta 1-42 oligomers made according to published methods [See e.g. Dahlgren et al., “Oligomeric and fibrillar species of amyloid-beta peptides differentially affect neuronal viability” J Biol. Chem. 2002 Aug. 30; 277(35):32046-53. Epub 2002 Jun. 10. LeVine H 3rd. “Alzheimer's beta-peptide oligomer formation at physiologic concentrations” Anal Biochem. 2004 Dec. 1; 335(1):81-90; Shrestha et. al, “Amyloid beta peptide adversely affects spine number and motility in hippocampal neurons” Mol Cell Neurosci. 2006 November; 33(3):274-82. Epub 2006 Sep. 8; Puzzo et al., “Amyloid-beta peptide inhibits activation of the nitric oxide/cGMP/cAMP-responsive element-binding protein pathway during hippocampal synaptic plasticity” J. Neurosci. 2005 Jul. 20; 25(29):6887-97; Barghorn et al., “Globular amyloid beta-peptide oligomer—a homogenous and stable neuropathological protein in Alzheimer's disease” J. Neurochem. 2005 November; 95(3):834-47. Epub 2005 Aug. 31; Johansson et al., Physiochemical characterization of the Alzheimer's disease-related peptides A beta 1-42 Arctic and A beta 1-42 wt. […] Negative controls include vehicle-treated neurons as well as neurons treated with 28 μM concentrations of memantine. […] These controls, on each plate, serve as normalization tools to calibrate assay performance on a plate-by-plate basis.
Primary neuronal cultures are prepared as follows: Optimal cell density of primary neuronal cultures is determined based on cellular response to Abeta oligomers using the exocytosis assay as a readout, and immunohistochemical analysis of the relative proportion of glia to neurons in the cultures. Cultures are monitored on a weekly basis with immunohistochemistry and image processing-based quantification to monitor the percentage of the cultures that are neurons vs. glia (Glial cells). Cultures containing more than 20% glia (positive for GFAP) vs. neurons (staining positively with antibodies directed against MAP2) at the screening age of 21 days in vitro (21 DIV) are rejected.
Toxicity is monitored in each image-based assay via quantification of nuclear morphology visualized with the DNA binding dye DAPI (Invitrogen). Nuclei that are fragmented are considered to be in late stage apoptosis (Majno and Joris '95). Peptide lots producing unusual peptide size ranges or significant toxicity at a standard 1.5 uM concentration on neurons are rejected.

in vivo = details: rat, 1 mg/kg
Protocol: PK studies are performed at CEREP Inc. of Redmond Wash., according to their standard protocols: The plasma samples were processed using acetonitrile precipitation and analyzed by HPLC-MS or HPLC-MS/MS. Peak areas were recorded, and the concentrations of the test compound in the unknown plasma samples were determined using the respective calibration curve. The reportable linear range of the assay was determined, along with the lower limit of quantitation (LLQ).
Pharmacokinetic studies were performed according to the following protocols: The plasma samples were processed using acetonitrile precipitation and analyzed by HPLC-MS or HPLC-MS/MS. Peak areas were recorded, and the concentrations of the test compound in the unknown plasma samples were determined using the respective calibration curve. The reportable linear range of the assay was determined, along with the lower limit of quantitation (LLQ).

[2] = system: Abeta oligomer-induced synapse loss; experiment: Abeta oligomer-induced synapse loss in vitro; type: cell-based
[3] = system: 9 month old male Swe/Ldn mice; experiment: Behavioral efficacy in transgenic Swe/Ldn mice (osmotic minipump); type: in vivo; details: transgenic mouse model of AD
Protocol: CT0093 was tested for its ability to reverse deficits in 9 month old male Swe/Ldn mice in a pilot study at 1 and 10 mg/kg/day via the osmotic minipump method.
Subcutaneous administration of 10 mg/kg/day of CT0093 (shown in gray squares and solid gray line and solid bar) achieved brain concentrations of 540 nM (FIG. 9).

[4] = system: Abeta oligomer effects on memory; experiment: Fear conditioning assay (contextual memory, Abeta oligomer administration); type: in vivo, mice
Protocol: CT0109 and CT0093 were tested in an animal model of a memory-dependent behavioral task known as fear conditioning. The study protocol was designed based on published protocols (See e.g. Puzzo D, Privitera L, Leznik E, Fa M, Staniszewski A, Palmeri A, Arancio O. Picomolar amyloid-beta positively modulates synaptic plasticity and memory in hippocampus. J Neurosci. 2008 Dec. 31; 28(53):14537-45.). The formation of contextual memories is dependent upon the integrity of medial temporal lobe structures such as the hippocampus. In this assay mice were trained to remember that a particular salient context (conditioned stimulus; CS) is associated with an aversive event, in this case a mild foot shock (the unconditioned stimulus, US). Animals that show good learning will express an increase in freezing behavior when placed back into the same context. This freezing is absent in a novel context. Increased freezing in the context indicates strong hippocampal-dependent memory formation in animals. Memory tested in Fear Conditioning is sensitive to elevations of soluble Aβ. […] The fear condition model for memory was performed as described herein.

Structure (SMILES): C[N+](C)(C)CCCCCC[N+](C)(C)C [hexamethonium bromide, reference compound]
- block of Abeta oligomer effects on membrane trafficking (in words) [1]: none were active

Structure (SMILES): CC1=CC=C(C(C)CC(CC(C)(C)O)NCC(C)C)CC1 (stereo not drawn) [CT1296, 4-(isobutylamino)-2-methyl-6-(4-methylcyclohexa-1,3-dienyl)heptan-2-ol]
- efficacy relative to the parent CT0093 (in words) [1]: somewhat less efficacious
- potency relative to the parent CT0093 (in words) [1]: maintained the potency of the parent compound
- efficacy relative to the parent CT0093 (in words) ([1]; listed as CT01296): slightly less efficacious
- clearance (in vivo): 120 ± 13 mL/min/kg
- half-life (in vivo): 1.15 ± 0.0833 h

Structure (SMILES): COc1cc(CCC(C)NCc2ccc(C(F)(F)F)cc2)ccc1O (stereo not drawn) [CT0109, 4-(3-(4-(trifluoromethyl)benzylamino)butyl)-2-methoxyphenol]
- block of Abeta oligomer-induced synapse loss [2]: inhibition of processed product of amyloid precursor protein-mediated synapse loss
- improvement of memory / cognitive performance of transgenic mice [3]: capable of improving cognitive performance in the transgenic model of AD; also recorded: improve memory deficits in a transgenic mouse model of Alzheimer's disease
- EC50 ([1]; Rattus norvegicus, Primary neuron, MTT assay, primary neurons, read-out: EC50, block of Abeta oligomer-induced acceleration of exocytosis / oligomer effects on membrane trafficking): 7 µM
- block of Abeta oligomer effects on membrane trafficking (in words) [1]: effective in both prevention; also recorded: effective at stopping Abeta oligomer mediated effects on membrane trafficking
- pharmacological competition with Abeta oligomers ([1]; synthetic and human Alzheimer's patient-derived oligomers): exhibit pharmacological competition with both synthetic (A, B) and human Alzheimer's patient-derived (C, D) oligomers
- block of Abeta oligomer effects on memory ([4]; 2 pmol dose, given prior to Abeta oligomers (200 nM), mice): blocked oligomer effects on memory; also recorded: completely blocked the effect of Abeta on memory
- adverse behavioral changes ([4]; any dose): No adverse behavioral changes were observed
- effect of compound alone on memory ([4]; without Abeta): No effect of compound alone was observed

Structure (SMILES): C[C@]12N[C@H](Cc3ccccc31)c1ccccc12 [MK-801, reference compound]
- block of Abeta oligomer effects on membrane trafficking (in words) [1]: none were active

Structure (SMILES): O[C@H]1[C@H](O)[C@@H](O)[C@H](O)[C@@H](O)[C@@H]1O [scyllo-inositol (AZD-103), scyllo-inositol, reference compound]
- block of Abeta oligomer effects on membrane trafficking (in words) [1]: none were active

Structure (SMILES): Cc1ccc(C(C)CC(CC(C)(C)O)NCC(C)C)cc1 (stereo not drawn) [CT1297, 4-(isobutylamino)-2-methyl-6-p-tolylheptan-2-ol]
- potency relative to the parent CT0093 (in words) [1]: significantly less potent than the parent CT0093
- fold less potent than the parent CT0093 ([1]; primary screening assay): ~2 fold
- clearance (in vivo): 101 ± 12 mL/min/kg
- half-life (in vivo): 2.68 ± 1.62 h

Structure (SMILES): CC12CC3CC(C)(C1)CC(N)(C3)C2 [memantine, reference compound]
- inhibition at 28 µM ([1]; Rattus norvegicus, Primary neuron, 28 μM memantine, plate control, read-out: inhibition of oligomer effects): 50%
